Experimental findings from patent publication US10087195B2, “Certain protein kinase inhibitors” (Shanghai Fochon Pharmaceutical Co., Ltd., priority 2014, dated 2018) are described below.

pIC50: −log10 of the molar value.

One assay has as its system BE(2)-C Cells. Nature of the assay: BE(2)-C cell proliferation assay (MTS). The class given is cell-based. The settings on record: Homo sapiens, compound treatment 72 hours. The protocol:
BE(2)-C Cells were plated in 96-well plates with 150 μl culture medium at cell density of 5000 cells/well. Compounds dilution: 20 mM stock solution of all compounds in DMSO. On the day of treatment, compounds were fresh diluted from the stock solution to a working solution (4× of final concentrations) in culture medium. 50 μl of compound mixtures were added to duplicate wells along with 150 μl of cells. 24 hours after BE(2)-C cells were plated, testing compounds were added. Cell proliferation was measured by MTS assay following manufacturer's instruction after compound treatment for 72 hours.

A further assay relates to COLO-205 cells. Nature of the assay: COLO-205 cell proliferation assay (MTS), mechanism-based assay for CDK4/6 inhibition. To be noted: Homo sapiens, compound treatment 48 h, MTS absorbance 490 nm, read-out: COLO205 IC50. As for the experimental part: To investigate whether a compound is able to inhibit the activity of CDK4/6 in cells, a mechanism-based assay using COLO-205 cell was developed. In this assay, inhibition of CDK4/6 was detected by the inhibition of COLO-205 cells proliferation. COLO-205 cells were cultured in culture flasks to 40-80% confluence in RPMI-1640 plus 10% fetal bovine serum. Cells were collected and plated onto 96-well plates at desired cell density (2000 cells/well). Plates were incubated overnight at 37° C., with 5% CO2 to adhere. Compounds were added to the plates, the final compound concentrations were […], 123.5, 41.2, 13.7, 4.6 and 1.5 nM. Place plates at 37° C., with 5% CO2 for 48 h. After removing the medium, 20 μl MTS/100 μl medium mixture solution were added to each well and incubate the plates for exactly 1.5 hours. Stop the reaction by adding 25 μl 10% SDS per well. Measure absorbance at 490 nm and 650 nm (reference wavelength). IC50 was calculated using GraphPad Prism 5.0.

For orientation: pIC50 means −log10 of the IC50, conventionally taken in molar units. With `CN(C)C(=O)c1sc2cnc(Nc3ccc(N4CCNCC4)cn3)nc2c1C1CCCC1` [Example 1, 7-Cyclopentyl-N,N-dimethyl-2-(5-(piperazin-1-yl)pyridin-2-ylamino)thieno[3,2-d]pyrimidine-6-carboxamide], the figures for the pIC50 in the assay on BE(2)-C Cells and in the assay with COLO-205 cells were 7.41 and 5.96, respectively. On to `CN1CCN(c2ccc(Nc3ncc4sc(C(=O)N(C)C)c(C5CCCC5)c4n3)nc2)CC1` [Example 2, 7-Cyclopentyl-N,N-dimethyl-2-(5-(4-methylpiperazin-1-yl)pyridin-2-ylamino)thieno[3,2-d]pyrimidine-6-carboxamide], for which the values for the negative-log IC50 (pIC50) with BE(2)-C Cells and in the assay on COLO-205 cells were 7.62 and 6.47, respectively.

For `CN(C)C(=O)c1cc2cnc(Nc3ccc(N4CCNCC4)cn3)nn2c1C1CCCC1` [Example 5, 7-cyclopentyl-N,N-dimethyl-2-((5-(piperazin-1-yl)pyridin-2-yl)amino)pyrrolo[2,1-f][1,2,4]triazine-6-carboxamide], the negative-log IC50 (pIC50) in the assay with BE(2)-C Cells was 6.22; with COLO-205 cells it was 6.29. For the molecule `CN(C)C(=O)c1oc2cnc(Nc3ccc(N4CCNCC4)cn3)nc2c1C1CCCC1` [Example 7, 7-cyclopentyl-N,N-dimethyl-2-((5-(piperazin-1-yl)pyridin-2-yl)amino)furo[3,2-d]pyrimidine-6-carboxamide], in the assay on COLO-205 cells, the pIC50 was 6.15. Same read-out and setting: the same measure for `NC(=O)c1sc2cnc(Nc3ccc(N4CCNCC4)cn3)nc2c1C1CCCC1` [Example 73, 7-cyclopentyl-2-((5-(piperazin-1-yl)pyridin-2-yl)amino)thieno[3,2-d]pyrimidine-6-carboxamide]: 6.20.

In the case of `CN(C)C(=O)c1sc2cnc(Nc3ccc4c(n3)CCNC4)nc2c1[C@H]1CC[C@H](C)CC1` [Example 87, N,N-dimethyl-7-((1r,4r)-4-methylcyclohexyl)-2-((5,6,7,8-tetrahydro-1,6-naphthyridin-2-yl)amino)thieno[3,2-d]pyrimidine-6-carboxamide], the negative logarithm of the IC50 (pIC50) in the assay on COLO-205 cells was 6.35.

For `CN1CCc2nc(Nc3ncc4sc(C(=O)N(C)C)c([C@H]5CC[C@H](C)CC5)c4n3)ccc2C1` [Example 88, N,N-dimethyl-2-((6-methyl-5,6,7,8-tetrahydro-1,6-naphthyridin-2-yl)amino)-7-((1r,4r)-4-methylcyclohexyl)thieno[3,2-d]pyrimidine-6-carboxamide], in the assay with COLO-205 cells, the negative-log IC50 (pIC50) is 6.07. Same read-out and setting: as for `CC(=O)N1CCc2nc(Nc3ncc4sc(C(=O)N(C)C)c([C@H]5CC[C@H](C)CC5)c4n3)ccc2C1` [Example 89, 2-((6-acetyl-5,6,7,8-tetrahydro-1,6-naphthyridin-2-yl)amino)-N,N-dimethyl-7-((1r,4r)-4-methylcyclohexyl)thieno[3,2-d]pyrimidine-6-carboxamide], the figure is 6.41; as for `CN(C)C(=O)c1sc2cnc(Nc3ccc4c(n3)CCN(C(=O)CO)C4)nc2c1[C@H]1CC[C@H](C)CC1` [Example 90, 2-((6-(2-hydroxyacetyl)-5,6,7,8-tetrahydro-1,6-naphthyridin-2-yl)amino)-N,N-dimethyl-7-((1r,4r)-4-methylcyclohexyl)thieno[3,2-d]pyrimidine-6-carboxamide], 6.57; as for `CN(C)C(=O)c1sc2cnc(Nc3ccc(N4CCNCC4)nn3)nc2c1[C@H]1CC[C@H](C)CC1` [Example 91, N,N-dimethyl-7-((1r,4r)-4-methylcyclohexyl)-2-((6-(piperazin-1-yl)pyridazin-3-yl)amino)thieno[3,2-d]pyrimidine-6-carboxamide], 6.65.
